Like-named read-outs stand apart in the source and are kept apart here.
Tests used:
[1] = biological target: T1, ovine COX1 (Ovis aries, UniProt P05979); test: COX inhibitor screening assay kit (Cayman No. 560131), COX1; assay type: biochemical
T1 construct: purchased Cayman Chemical 560131 (kit)
T1 sequence (P05979 25-600): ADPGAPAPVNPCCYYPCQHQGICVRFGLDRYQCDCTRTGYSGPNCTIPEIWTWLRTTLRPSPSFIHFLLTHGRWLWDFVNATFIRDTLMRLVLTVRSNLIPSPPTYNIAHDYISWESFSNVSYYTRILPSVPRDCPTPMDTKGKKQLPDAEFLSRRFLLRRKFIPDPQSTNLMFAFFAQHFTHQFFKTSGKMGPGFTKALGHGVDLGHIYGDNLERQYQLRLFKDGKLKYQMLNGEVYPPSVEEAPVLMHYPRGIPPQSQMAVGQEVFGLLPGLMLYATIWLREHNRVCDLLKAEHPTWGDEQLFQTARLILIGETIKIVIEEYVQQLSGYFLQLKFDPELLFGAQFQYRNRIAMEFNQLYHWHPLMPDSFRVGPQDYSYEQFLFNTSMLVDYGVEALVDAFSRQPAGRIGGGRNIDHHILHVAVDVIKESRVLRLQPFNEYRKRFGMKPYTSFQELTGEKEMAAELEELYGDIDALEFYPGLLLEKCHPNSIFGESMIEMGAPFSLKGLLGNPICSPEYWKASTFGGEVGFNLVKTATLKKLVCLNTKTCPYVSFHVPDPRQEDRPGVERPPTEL
Protocol: All chemicals were purchased from Sigma-Aldrich and Alfa Aesar. Melting points were determined with an SMP-II Digital Melting Point Apparatus and are uncorrected. IR spectra were obtained using a Perkin Elmer Spectrum 400 FTIR/FTNIR spectrometer. ^1H-NMR and ^13C-NMR spectra were recorded in DMSO-d6 and were performed on two NMR instruments. […] The second was a Bruker 300 MHz-Avance III High-Performance Digital FT-NMR spectrometer at the NMR facility at the Doping and Narcotics Analysis Laboratory of the faculty of pharmacy, Anadolu University, Turkey (it was used for both ^1H-NMR and ^13C-NMR for the other compounds). Tetramethylsilane was used as the internal standard. All chemical shifts were recorded as d (ppm). […] HeLa Cervical Carcinoma cell line was purchased from ATCC (ATCC® CCL-2™), and the cyototoxicty test of the cell viability was assessed by the CellTilter 96® Aqueous One Solution Cell Proliferation (MTS) assay according to the manufacturer’s instructions (Promega Corporation, Madison, WI) (Additional file 1).
The assay was run in duplicate with three concentrations (50, 20, and 5 µM). […] The percentage inhibition of the three concentrations was used to calculate the IC50 [16].

[2] = MTS cytotoxicity assay on HeLa cells; assay type: cell-based; conditions: human
Protocol: An MTS assay was used to determine the cytotoxic effect of Benzodioxole derivatives on HeLa (cervical carcinoma cells).
All chemicals were purchased from Sigma-Aldrich and Alfa Aesar. Melting points were determined with an SMP-II Digital Melting Point Apparatus and are uncorrected. IR spectra were obtained using a Perkin Elmer Spectrum 400 FTIR/FTNIR spectrometer. ^1H-NMR and ^13C-NMR spectra were recorded in DMSO-d6 and were performed on two NMR instruments. The first was a Bruker 500 MHz-Avance III High-Performance Digital FT-NMR spectrometer at the Faculty of Science, Department of Chemistry, The University of Jordan, Jordan (it was used for the ^1H-NMR of just one compound, 3e). The second was a Bruker 300 MHz-Avance III High-Performance Digital FT-NMR spectrometer at the NMR facility at the Doping and Narcotics Analysis Laboratory of the faculty of pharmacy, Anadolu University, Turkey (it was used for both ^1H-NMR and ^13C-NMR for the other compounds). Tetramethylsilane was used as the internal standard. All chemical shifts were recorded as d (ppm). […] The yellow product of this enzymatic reaction was determined using a UV spectrophotometer with a Microplate Reader (BioRad, Japan) at a wavelength of 415 nm. HeLa Cervical Carcinoma cell line was purchased from ATCC (ATCC® CCL-2™), and the cyototoxicty test of the cell viability was assessed by the CellTilter 96® Aqueous One Solution Cell Proliferation (MTS) assay according to the manufacturer’s instructions (Promega Corporation, Madison, WI) (Additional file 1).
HeLa Cervical Carcinoma was cultured in RPMI-1640 media and supplemented with 10% fetal bovine serum, 1% penicillin/streptomycin antibiotics and 1% L-glutamine. Cells were grown in a humidified atmosphere with 5% CO2 at 37 °C, and they were seeded in 2.6 × 10^4 cells/well in a 96-well plate. After 48 h, the cells were confluent, the media was changed, and cells were incubated with four concentrations (2, 1, 0.5, and 0.2 mM) of the tested compounds for 24 h. Cell viability was assessed by the CellTilter 96® Aqueous One Solution Cell Proliferation (MTS) Assay according to the manufacturer’s instructions (Promega Corporation, Madison, WI). Briefly, at the end of the treatment, 20 μL of MTS solution per 100 μL of media was added to each well and incubated at 37 °C for 2 h. Absorbance was measured at 490 nm.

[3] = biological target: T2, human recombinant COX2 (Homo sapiens, UniProt P35354); test: COX inhibitor screening assay kit (Cayman No. 560131), COX2; assay type: biochemical; conditions: for COX1/COX2 Ratio Selectivity: ratio of IC50 COX1 to IC50 COX2; for IC50: run in duplicate with three concentrations (50, 20, and 5 µM)
T2 construct: purchased Cayman Chemical 560131 (kit)
T2 sequence (P35354 18-604): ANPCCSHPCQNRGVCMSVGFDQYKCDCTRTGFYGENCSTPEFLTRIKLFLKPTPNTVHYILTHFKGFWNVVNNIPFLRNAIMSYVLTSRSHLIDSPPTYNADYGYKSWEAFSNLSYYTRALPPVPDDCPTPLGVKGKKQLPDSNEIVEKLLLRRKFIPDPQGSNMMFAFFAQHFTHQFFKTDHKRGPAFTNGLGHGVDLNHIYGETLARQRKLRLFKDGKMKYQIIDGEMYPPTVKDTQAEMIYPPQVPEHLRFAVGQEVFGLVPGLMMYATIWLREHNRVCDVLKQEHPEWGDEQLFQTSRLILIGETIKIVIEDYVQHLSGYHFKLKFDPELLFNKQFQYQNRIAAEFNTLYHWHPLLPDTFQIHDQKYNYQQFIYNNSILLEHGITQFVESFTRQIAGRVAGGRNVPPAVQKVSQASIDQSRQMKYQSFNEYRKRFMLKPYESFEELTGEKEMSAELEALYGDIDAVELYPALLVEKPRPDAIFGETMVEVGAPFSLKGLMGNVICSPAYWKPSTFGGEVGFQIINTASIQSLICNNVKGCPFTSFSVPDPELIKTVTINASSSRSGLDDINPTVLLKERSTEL

[4] = run in duplicate with three concentrations (50, 20, and 5 µM), read-out: The IC50 in µM of COX1
[5] = HeLa cervical carcinoma cells (ATCC CCL-2), HeLa, 24 h incubation, MTS, read-out: HeLa Cell CC50 in milli-molar

Row | IC50 [1, 4] [µM] | melting point [°C] | COX1/COX2 Ratio Selectivity [3] | IC50 [3] [µM] | IC50 ([1]; The IC50 in µM of COX1, run in duplicate with three concentrations (50, 20, and 5 µM)) [µM] | SMILES | CC50 at 24 h [2] [µM] | CC50 at 24 h [2, 5] [µM]
1 | 0.725 | 168.5 to 170 | 0.169 | 4.29 |  | O=C(O)Cc1cc2c(cc1C(=O)c1ccc(Cl)cc1Cl)OCO2 [4f, 2-(6-(2,4-dichlorobenzoyl)benzo[d][1,3]dioxol-5-yl)acetic acid] |  | 1020
2 | 12.3 |  | 0.859 | 14.3 |  | COC(=O)Cc1cc2c(cc1C(=O)c1ccccc1)OCO2 [3a, Methyl 2-(6-benzoylbenzo[d][1,3]dioxol-5-yl)acetate] |  | 1490
3 | 1.12 |  | 0.862 | 1.3 |  | COC(=O)Cc1cc2c(cc1C(=O)c1ccccc1I)OCO2 [3b, Methyl 2-(6-(2-iodobenzoyl)benzo[d][1,3]dioxol-5-yl)acetate] |  | 228
4 | 7.67 | 147 to 149 | 0.250 | 30.7 |  | O=C(O)Cc1cc2c(cc1C(=O)c1ccccc1I)OCO2 [4b, 2-(6-(2-iodobenzoyl)benzo[d][1,3]dioxol-5-yl)acetic acid] |  | 697
5 | 7.11 | 154 to 156 | 0.144 | 49.3 |  | O=C(O)Cc1cc2c(cc1C(=O)c1cccc(Br)c1)OCO2 [4e, 2-(6-(3-bromobenzoyl)benzo[d][1, 3]dioxol-5-yl)acetic acid] |  | 437
6 |  |  |  |  | 0.031 | CC(C(=O)O)c1cccc(C(=O)c2ccccc2)c1 (stereo not drawn) [Ketoprofen, reference compound] |  | 
7 | 27.1 | 119 to 121 | 0.723 | 37.5 |  | COC(=O)Cc1cc2c(cc1C(=O)c1ccc(I)cc1)OCO2 [3c, Methyl 2-(6-(4-iodobenzoyl)benzo[d][1,3]dioxol-5-yl)acetate] |  | 1790
8 | 33.7 | 239.5 to 241.5 | 0.861 | 39.1 |  | O=C(O)Cc1cc2c(cc1C(=O)c1ccc(I)cc1)OCO2 [4c, 2-(6-(4-iodobenzoyl)benzo[d][1,3]dioxol-5-yl)acetic acid] |  | 1050
9 | 1.45 | 184.5 to 186.5 | 0.434 | 3.34 |  | O=C(O)Cc1cc2c(cc1C(=O)c1ccccc1)OCO2 [4a, 2-(6-benzoylbenzo[d][1,3]dioxol-5-yl)acetic acid] |  | 1940
10 |  | 95 to 97 |  |  |  | COC(=O)Cc1cc2c(cc1C(=O)c1ccc(Cl)cc1Cl)OCO2 [3f, Methyl 2-(6-(2,4-dichlorobenzoyl)benzo[d][1, 3]dioxol-5-yl)acetate] |  | 
11 |  | 85 to 87 | 0.897 | 1.45 |  | COC(=O)Cc1cc2c(cc1C(=O)c1ccccc1Br)OCO2 [3d, Methyl 2-(6-(2-bromobenzoyl)benzo[d][1,3]dioxol-5-yl)acetate] |  | 1610
12 | 4.25 | 145 to 147 | 1.809 | 2.35 |  | O=C(O)Cc1cc2c(cc1C(=O)c1ccccc1Br)OCO2 [4d, 2-(6-(2-bromobenzoyl)benzo[d][1,3]dioxol-5-yl)acetic acid] |  | 547

Row | SMILES | IC50 [1, 4] [µM] | melting point [°C] | COX1/COX2 Ratio Selectivity [3] | IC50 [3] [µM] | IC50 ([1]; The IC50 in µM of COX1, run in duplicate with three concentrations (50, 20, and 5 µM)) [µM] | CC50 at 24 h [2] [µM] | CC50 at 24 h [2, 5] [µM]
13 | COC(=O)Cc1cc2c(cc1C(=O)c1cccc(Br)c1)OCO2 [3e, Methyl 2-(6-(3-bromobenzoyl)benzo[d][1, 3]dioxol-5-yl)acetate] | 2.36 | 72.5 to 74.5 | 0.864 | 2.73 |  | 219 | 

Reference: PMC7487730, “Design, synthesis and biological evaluation of novel benzodioxole derivatives as COX inhibitors and cytotoxic agents” (BMC Chemistry, 2020)
